Measured values: patent US10537567B2, “Kinase inhibitors for treatment of disease” (BioAxone BioSciences, Inc., priority 2017, dated 2020)
“Also recorded” adds a separate entry of the source.

Experiments:
[1] = clinical studies; cited from earlier work
[2] = cited from earlier work
ROCK2 [3] = target: T1, ROCK2 (Homo sapiens, UniProt O75116); assay: Direct filter-binding radiometric kinase assay (Eurofins) at Km ATP; format: biochemical; design: purchased Eurofins Testing (Dundee, Scotland, UK); settings: for ROCK1/ROCK2 (fold difference): IC50 at respective Km ATP
Method: ROCK1 and ROCK2 IC50 determinations were made using ATP concentrations at the Km ATP of 70 μM and 15 μM for ROCK1 and ROCK2, respectively.
For the data shown in Table 4, IC50 inhibition curves were performed at the respective Km for ATP for both ROCK1 and ROCK2. Performing these assays at the Km of ATP gives a better representation of the inhibitory activity. Other comparisons where differing kinases are tested at a single ATP concentration can potentially misrepresent the comparative efficacy since enzyme inhibitory activity tested below the Km for ATP of the enzyme, produces a circumstance where the enzyme is actually not constantly bound with ATP and the reaction velocity becomes sub-optimal.
Target sequence in this assay (O75116 whole entry): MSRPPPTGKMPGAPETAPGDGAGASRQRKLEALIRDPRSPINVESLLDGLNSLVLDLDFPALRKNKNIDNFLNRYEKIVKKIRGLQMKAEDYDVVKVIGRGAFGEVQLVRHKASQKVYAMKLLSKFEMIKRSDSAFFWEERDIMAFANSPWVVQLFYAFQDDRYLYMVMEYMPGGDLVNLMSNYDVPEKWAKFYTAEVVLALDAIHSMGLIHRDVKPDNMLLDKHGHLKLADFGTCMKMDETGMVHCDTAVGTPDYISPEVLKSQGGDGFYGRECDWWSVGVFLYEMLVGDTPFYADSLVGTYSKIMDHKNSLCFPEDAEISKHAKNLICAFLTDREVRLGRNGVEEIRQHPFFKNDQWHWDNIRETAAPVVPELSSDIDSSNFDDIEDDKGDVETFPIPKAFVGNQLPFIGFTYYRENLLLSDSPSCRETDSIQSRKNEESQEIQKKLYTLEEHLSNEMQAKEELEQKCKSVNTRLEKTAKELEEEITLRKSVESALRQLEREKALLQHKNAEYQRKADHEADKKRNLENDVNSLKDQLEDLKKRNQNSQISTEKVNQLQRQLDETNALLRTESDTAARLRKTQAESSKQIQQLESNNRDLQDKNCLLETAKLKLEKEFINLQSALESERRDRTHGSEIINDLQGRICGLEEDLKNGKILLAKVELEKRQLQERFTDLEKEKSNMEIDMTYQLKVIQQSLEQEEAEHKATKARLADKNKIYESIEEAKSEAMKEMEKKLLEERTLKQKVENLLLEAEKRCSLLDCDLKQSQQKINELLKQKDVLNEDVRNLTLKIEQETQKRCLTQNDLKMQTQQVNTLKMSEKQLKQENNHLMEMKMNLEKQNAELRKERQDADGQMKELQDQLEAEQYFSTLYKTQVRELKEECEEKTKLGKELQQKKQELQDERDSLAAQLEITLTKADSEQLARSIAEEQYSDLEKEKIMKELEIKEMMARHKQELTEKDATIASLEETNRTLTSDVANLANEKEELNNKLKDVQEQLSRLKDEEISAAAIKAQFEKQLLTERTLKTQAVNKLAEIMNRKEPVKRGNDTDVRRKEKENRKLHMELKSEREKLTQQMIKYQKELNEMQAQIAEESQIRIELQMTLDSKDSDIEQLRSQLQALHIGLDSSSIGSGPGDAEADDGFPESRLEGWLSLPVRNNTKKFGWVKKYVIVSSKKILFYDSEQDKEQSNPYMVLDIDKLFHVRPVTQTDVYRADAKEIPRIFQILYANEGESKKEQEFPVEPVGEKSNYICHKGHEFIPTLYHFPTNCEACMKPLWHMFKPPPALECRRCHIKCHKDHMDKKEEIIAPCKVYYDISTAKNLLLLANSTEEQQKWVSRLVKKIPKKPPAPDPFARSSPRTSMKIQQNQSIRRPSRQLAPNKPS

ROCK2 [4] = target: T1, ROCK2; assay: IC50 determined at 10 μM ATP; format: biochemical; design: purchased Eurofins Testing (Dundee, Scotland, UK); settings: for IC50: 10 μM ATP (below Km), * = preliminary
Excerpt: The data in Table 2 were obtained at ATP concentration below those corresponding to Km.
Target sequence in this assay (O75116 whole entry): as above

ROCK1 [5] = target: T2, ROCK1 (Homo sapiens, UniProt Q13464); assay: DiscoverX kinome screen; format: binding; design: are incubated with DNA-tagged kinase domains tagged; DNA tag; purchased DiscoverX; settings: 10,000 nM API
Method: (§1) A 468-target kinome screen and a safety screen were carried out to examine the off-target profiles of different kinase inhibitors (DiscoverX, Freemont, Calif.). The kinome screen is a binding assay where API interference of kinase domain/substrate binding is assessed as percent of control. Less than 10% binding (or >90% binding inhibition) is most biologically relevant and considered as a ‘hit’. BA-2017 only had 7 off-target hits compared to BA-1049 and Netarsudil, which both had 11 hits (Table 1) (Studirvant et al. 2016 Bioorg Med Chem Lett. 26(10):2475-2480). […] Published data for Netarsudil were with 200 times less API. […] The NET activity likely helps to decrease IOP but might increase hyperemia, while the SERT activity might have long-term safety consequences (Costagliola et al. 2004 CNS drugs 18(8): p. 475-484).
(§2) In the kinome screen BA-2017 had fewer off-target hits (Table 1) than BA-1049. […] An interesting hit from the kinome screen was on Abl (Table 1), an oncogene that also regulates many cellular activities, including vascular leakage.
Target sequence in this assay (Q13464 76-338 limits assumed): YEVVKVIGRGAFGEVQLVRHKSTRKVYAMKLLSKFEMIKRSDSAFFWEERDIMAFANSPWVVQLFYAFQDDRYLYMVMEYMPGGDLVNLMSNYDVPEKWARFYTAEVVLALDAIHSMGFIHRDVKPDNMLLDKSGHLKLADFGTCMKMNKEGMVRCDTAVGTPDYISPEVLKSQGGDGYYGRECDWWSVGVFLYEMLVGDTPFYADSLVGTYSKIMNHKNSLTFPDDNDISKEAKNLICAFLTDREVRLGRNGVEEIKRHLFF

ROCK2 [6] = target: T1, ROCK2; assay: DiscoverX kinome screen; format: binding; design: are incubated with DNA-tagged kinase domains tagged; DNA tag; purchased DiscoverX; settings: 10,000 nM API
Method: as §1, §2
Target sequence in this assay (O75116 92-354 limits assumed): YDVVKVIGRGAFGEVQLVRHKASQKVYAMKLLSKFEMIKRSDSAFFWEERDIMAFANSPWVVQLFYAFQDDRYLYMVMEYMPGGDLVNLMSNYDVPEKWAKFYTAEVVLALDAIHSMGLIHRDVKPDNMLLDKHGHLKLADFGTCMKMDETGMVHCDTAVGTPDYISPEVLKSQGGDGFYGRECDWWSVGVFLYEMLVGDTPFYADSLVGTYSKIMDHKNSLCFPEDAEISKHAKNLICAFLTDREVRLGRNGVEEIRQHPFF

[7] = Penetration and distribution in ocular tissues after topical instillation (LC-MS); format: in vivo, Sprague Dawley rats; settings: topical 3% solution of metabolite, 20 minutes
Method: (§3) Adult Sprague Dawley rats (Charles River Laboratories) were used for this experiment. […] One g of tissue was homogenized in 1 mL of 1×PBS. Homogenates were precipitated by pipetting 200 μL of homogenate into a tube using aseptically cut off 1000 μL pipette tips to prevent clogging. Samples are further diluted with 100 μL PBS to aid in precipitation. 900 μL of cold methanol was added to each sample and samples were vortexed for 5 to 10 seconds. Samples were placed at 4° C. for 30 to 40 min and then centrifuged at 10,000 g for 15 min at 4° C. The supernatant is collected and stored at −80° C. until analyzed.
For the optic nerve sample, the concentration is shown per length of optic nerve (right y-axis). […] Therefore, drug is available in the retina and optic nerve for treating these tissues affected in glaucoma and other retinal diseases.
In FIG. 14 we examined the ability of metabolite to penetrate the ocular tissues of the eye after topical instillation of a 3% solution of metabolite. In comparison with FIG. 13, that also the metabolite has adequate penetration into ocular and CNS tissue. Of particular note is the penetration in the retina and presence in the optic nerve. All compounds were given topically as eye drops to the eye of adult Sprague Dawley rats. Twenty minutes later the indicated tissues were removed and the parent compound and active metabolite were analyzed by LC/MS.

[8] = target: T3, norepinephrine transporter (NET) (Homo sapiens, UniProt P23975); assay: Safety screen; format: biochemical; settings: 10,000 nM API
T3 construct: purchased DiscoverX
T3 sequence (P23975 whole entry): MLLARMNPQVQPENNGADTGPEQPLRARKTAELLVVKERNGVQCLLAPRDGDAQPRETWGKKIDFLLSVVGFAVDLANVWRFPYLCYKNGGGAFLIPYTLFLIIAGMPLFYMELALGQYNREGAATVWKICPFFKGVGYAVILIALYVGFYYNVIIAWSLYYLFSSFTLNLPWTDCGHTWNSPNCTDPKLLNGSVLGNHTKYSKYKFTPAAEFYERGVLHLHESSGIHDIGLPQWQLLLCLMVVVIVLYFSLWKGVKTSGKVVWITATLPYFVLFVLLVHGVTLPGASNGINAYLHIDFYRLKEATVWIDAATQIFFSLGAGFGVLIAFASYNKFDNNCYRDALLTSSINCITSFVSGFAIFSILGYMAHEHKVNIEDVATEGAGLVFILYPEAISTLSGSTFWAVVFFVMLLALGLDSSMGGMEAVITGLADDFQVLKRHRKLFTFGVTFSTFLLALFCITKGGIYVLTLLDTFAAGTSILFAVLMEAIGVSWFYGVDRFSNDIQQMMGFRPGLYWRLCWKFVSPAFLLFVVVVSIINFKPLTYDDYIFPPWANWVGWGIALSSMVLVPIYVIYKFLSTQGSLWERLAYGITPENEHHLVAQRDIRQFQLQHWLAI
Method: as §1
(§4) These targets include GPCRs, transporters, ion channels, nuclear receptors, non-kinase enzymes.

[9] = target: T4, serotonin transporter (SERT) (Homo sapiens, UniProt P31645); assay: Safety screen; format: biochemical; settings: 10,000 nM API
T4 construct: purchased DiscoverX
T4 sequence (P31645 whole entry): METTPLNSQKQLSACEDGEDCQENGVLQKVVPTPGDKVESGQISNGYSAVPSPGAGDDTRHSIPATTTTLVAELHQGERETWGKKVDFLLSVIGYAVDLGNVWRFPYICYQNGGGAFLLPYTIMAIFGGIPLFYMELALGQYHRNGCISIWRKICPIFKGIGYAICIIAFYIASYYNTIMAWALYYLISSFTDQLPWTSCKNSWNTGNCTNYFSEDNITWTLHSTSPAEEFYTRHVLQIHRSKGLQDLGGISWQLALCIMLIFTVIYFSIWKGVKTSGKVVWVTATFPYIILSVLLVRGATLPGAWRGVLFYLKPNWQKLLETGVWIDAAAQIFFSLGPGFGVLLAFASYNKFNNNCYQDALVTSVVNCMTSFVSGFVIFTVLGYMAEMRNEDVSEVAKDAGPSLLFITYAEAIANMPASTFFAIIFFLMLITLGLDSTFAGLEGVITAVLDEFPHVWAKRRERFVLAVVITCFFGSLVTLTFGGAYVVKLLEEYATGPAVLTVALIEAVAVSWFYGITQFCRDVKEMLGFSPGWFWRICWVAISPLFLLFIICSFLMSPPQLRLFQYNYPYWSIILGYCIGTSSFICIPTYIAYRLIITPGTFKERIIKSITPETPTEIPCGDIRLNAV
Method: as §1, §4

468-target kinome screen = assay: DiscoverX kinome screen, off-target hits; format: binding, human; settings: 10,000 nM API; for # Hits <10% binding: hit = less than 10% binding (>90% binding inhibition)
Method: as §1, §2

PKC Δ = target: T5, PKC Δ (Homo sapiens, UniProt Q05655); assay: DiscoverX kinome screen; format: binding; settings: 10,000 nM API
T5 construct: are incubated with DNA-tagged kinase domains tagged; DNA tag; purchased DiscoverX
T5 sequence (Q05655 349-603 limits assumed, stated change not applied): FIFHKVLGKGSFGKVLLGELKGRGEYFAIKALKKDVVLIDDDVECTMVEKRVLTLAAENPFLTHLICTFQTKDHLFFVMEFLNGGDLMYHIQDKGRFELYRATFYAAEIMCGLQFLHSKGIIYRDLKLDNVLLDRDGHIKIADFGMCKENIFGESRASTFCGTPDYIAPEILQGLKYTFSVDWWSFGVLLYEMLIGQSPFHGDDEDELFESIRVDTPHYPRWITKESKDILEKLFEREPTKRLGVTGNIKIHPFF
Method: as §1, §2

PKC ε = target: T6, PKC ε (Homo sapiens, UniProt Q02156); assay: DiscoverX kinome screen; format: binding; settings: 10,000 nM API
T6 construct: are incubated with DNA-tagged kinase domains tagged; DNA tag; purchased DiscoverX
T6 sequence (Q02156 408-668 limits assumed): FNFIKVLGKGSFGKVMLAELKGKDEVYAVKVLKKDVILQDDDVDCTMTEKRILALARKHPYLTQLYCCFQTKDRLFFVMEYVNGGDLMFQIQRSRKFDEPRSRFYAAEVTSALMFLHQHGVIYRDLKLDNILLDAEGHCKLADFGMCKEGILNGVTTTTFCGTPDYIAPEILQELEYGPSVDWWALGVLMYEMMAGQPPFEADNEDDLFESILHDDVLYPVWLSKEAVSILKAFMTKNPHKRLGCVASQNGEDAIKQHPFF
Method: as §1, §2

[10] = Brain and blood vessel exposure after oral administration; format: in vivo, Sprague Dawley rats
Method: as §3
Pathological angiogenesis that occurs in the retina is a major feature of leading blinding diseases, and particularly associated with diabetic retinopathy and age-related macular degeneration.

PKA, PKC and CaMKII = settings: cited from earlier work
PKA [11] = target: T7, PKA (Homo sapiens, UniProt P17612); settings: cited from earlier work
[12] = followed 24 months; cited from earlier work
ROCK1 [13] = target: T2, ROCK1; assay: IC50 determined at 10 μM ATP; format: biochemical; design: purchased Eurofins Testing (Dundee, Scotland, UK); settings: 10 μM ATP (below Km)
[14] = Oral dosing of cynomolgus monkeys, systemic side effects; format: in vivo; settings: 18 mg/kg oral gavage, 4 monkeys
Method: Oral dosing of 4 cynomolgus monkeys dosed with 18 mg/kg oral BA-1049 by oral gavage were completed to understand potential systemic side effects. The only side effects noticed at this dose was squinting by the monkeys.

PKA [15] = target: T7, PKA; assay: Single dose inhibition assay of key AGC class kinases; format: biochemical; settings: 10 μM API
Method: Molecular modeling and rational drug design were used to create and screen over 50 ROCK inhibitors. These ROCK inhibitors were screened for selectivity for ROCK2 and ability to promote neurite outgrowth. Several lead inhibitors came out of this screen and further screened for inhibition of key AGC class kinases by a single dose inhibition assay performed with 10 μM active pharmaceutical ingredient (API). The lead compound is chiral. […] They have different selectivity for ROCK2 (Table 2) and different off-target profiles (Table 1; FIG. 1).

GRK1 = target: T8, GRK1 (Homo sapiens, UniProt Q15835); assay: DiscoverX kinome screen; format: binding
T8 construct: are incubated with DNA-tagged kinase domains tagged; DNA tag; purchased DiscoverX
T8 sequence (Q15835 190-455 limits assumed): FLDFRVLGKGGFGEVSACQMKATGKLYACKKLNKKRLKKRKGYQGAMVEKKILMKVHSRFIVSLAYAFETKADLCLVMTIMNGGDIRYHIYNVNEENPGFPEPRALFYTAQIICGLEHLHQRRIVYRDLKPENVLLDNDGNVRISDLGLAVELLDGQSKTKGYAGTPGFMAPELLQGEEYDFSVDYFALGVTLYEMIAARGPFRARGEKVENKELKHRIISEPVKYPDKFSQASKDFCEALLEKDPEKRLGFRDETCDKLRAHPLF
Method: as §1, §2

| Structure (SMILES) | Hyperemia in humans [1] | ROCK1/ROCK2 (fold difference) (ROCK2 [3]) | IC50 (ROCK2 [4]) [µM] | Kinome Screen % inhibition ROCK1 (ROCK1 [5]) [%] | Kinome Screen % inhibition ROCK2 (ROCK2 [6]) [%] | Safety Screen % inhibition NET [8] | Safety Screen % inhibition SERT [9] | Kinome Screen Other (other off-target kinase) (468-target kinome screen) | # Hits <10% binding (468-target kinome screen) | Kinome Screen % inhibition PKC Δ (PKC Δ) [%] | Kinome Screen % inhibition PKC ε (PKC ε) [%] | Exposure in blood vessels [10] | other results |
| --- | --- | --- | --- | --- | --- | --- | --- | --- | --- | --- | --- | --- | --- |
| Cc1ccc(C(=O)OCc2ccc([C@@H](CN)C(=O)Nc3ccc4cnccc4c3)cc2)c(C)c1 [Netarsudil] | cause hyperemia (red eyes) as a major side effect | – | – | – | – | – | – | – | – | – | – | – | Duration of hyperemia on day 1 ([2]; 0.04% Netarsudil): at least 8 hours; Duration of mild hyperemia ([2]; Dutch belted rabbits): 4 to 8 h |
| C[C@@H](N)C1CCN(S(=O)(=O)c2cccc3c(=O)[nH]ccc23)CC1 [BA-2017] | – | 16.5 | 0.05 | >99 | >99 | none | none | GRK1 | 7 | <85 | 94.7 | accumulate at high concentrations in blood vessels | Penetration into ocular tissues [7]: can penetrate ocular tissue |
| C[C@H]1CNCCCN1S(=O)(=O)c1cccc2cncc(F)c12 [Ripasudil] | more frequent and of longer duration than Netarsudil; also recorded: cause hyperemia (red eyes) as a major side effect | – | – | – | – | – | – | – | – | – | – | – | Inhibition of PKA, PKC and CaMKII (PKA, PKC and CaMKII): both inhibit PKA, PKC and CaMKII |
| C[C@@H](N)[C@H]1CC[C@H](C(=O)Nc2ccncc2)CC1 [Compound Y-27632, Y-27632] | – | – | – | – | – | – | – | – | – | – | – | – | Binding to PKA (PKA [11]): all bind PKA |
| C[C@@H](N)[C@H]1CC[C@H](C(=O)Nc2ccncc2)CC1 [Compound Y27432, Y27432] | – | – | – | – | – | – | – | – | – | – | – | – | Corneal clarity and vision [12]: corneal clarity improved and vision improved |
| C[C@@H](N)C1CCN(S(=O)(=O)c2cccc3cnccc23)CC1 [BA-1049] | – | 43.4 | 0.24 | >99 | >99 | none | none | none | 11 | <70 | 95 | accumulate at high concentrations in blood vessels | IC50 (ROCK1 [13]): 3.9 µM; IC50 (ROCK2 [3]; ATP at Km, 15 μM, * = higher purity BA-1076): 0.599 µM; Fold-difference (ROCK2 [4]; ROCK1 vs ROCK2 IC50 at 10 μM ATP): 16; Side effects [14]: squinting; Inhibition of PKA (PKA [15]): Neither compound inhibited PKA; Off-target activity on GRK1 (GRK1): has some activity toward G-protein couple protein kinase1; also recorded: showed binding to G-protein couple protein kinase1 (GRK1); Brain penetrance [10]: is able to cross the blood brain barrier |
